Measurements taken from PubChem BioAssay AID250 (DTP/NCI, 2004).
Where “and” joins values, the source holds several entries; their conditions need not be identical. Equal entries are not always repeated. Inconclusive results and toxic doses are left out.

System: BDF1 mice, L1210 leukemia sc, survival T/C
Assay: NCI In Vivo Anticancer Drug Screen. Data for tumor model L1210 Leukemia (subcutaneous) in B6D2F1 (BDF1) mice
Settings: endpoint: median survival time, higher = longer survival
In short: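 Expressed as T/C: measurement in compound-treated, tumor-bearing mice relative to vehicle-treated control mice, based on survival or tumor size.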

[1] = dose: 39.0 mg/kg/injection, schedule: Q01DX Z (sc), vehicle: methylcellulose (MC)
[2] = dose: 65.0 mg/kg/injection, schedule: Q01DX Z (sc), vehicle: methylcellulose (MC)
[3] = dose: 108.0 mg/kg/injection, schedule: Q01DX Z (sc), vehicle: methylcellulose (MC)
[4] = dose: 180.0 mg/kg/injection, schedule: Q01DX Z (sc), vehicle: methylcellulose (MC)
[5] = dose: 300.0 mg/kg/injection, schedule: Q01DX Z (sc), vehicle: methylcellulose (MC)
[6] = dose: 500.0 mg/kg/injection, schedule: Q01DX Z (sc), vehicle: methylcellulose (MC)

Q: `C=C(C)c1ccc(/C=N/NC(N)=S)cc1` was tested. Which T/C [1] did it give?
A: 109 % of control

Q: And the T/C [2]?
A: 109 % of control

Q: And the T/C [3]?
A: 109 % of control

Q: What about the T/C [4] of the same molecule?
A: 109 % of control

Q: What about the T/C [5] of the same molecule?
A: 113 % of control

Q: And the T/C [6]?
A: 109 % of control

Q: What does the source list for `Cn1c(N)nc2nc[nH]c2c1=S`?
A: T/C [2]: 100 % of control; T/C [3]: 100 % of control; T/C [4]: 100 % of control and 105 % of control; T/C [5]: 100 % of control; T/C [6]: 100 % of control and 105 % of control; T/C (dose: 833.0 mg/kg/injection, schedule: Q01DX Z (sc), vehicle: methylcellulose (MC)): 110 % of control

Q: What does the source list for `COc1ccc2nc3cc(Cl)ccc3c(NCCN(CCCl)CCCl)c2c1`?
A: T/C (dose: 0.65 mg/kg/injection, schedule: Q01DX Z (sc), vehicle: methylcellulose (MC)): 105 % of control; T/C [1]: 100 % of control

Q: How did the T/C (dose: 2.5 mg/kg/injection, schedule: Q01DX Z (sc), vehicle: methylcellulose (MC)) turn out when `O=C(O)c1[nH]c(=O)[nH]c(=O)c1F` was run?
A: 105 % of control

Q: What about the T/C (dose: 8.0 mg/kg/injection, schedule: Q01DX Z (sc), vehicle: saline) of the same molecule?
A: 166 % of control

Q: And the T/C (dose: 10.0 mg/kg/injection, schedule: Q01DX Z (sc), vehicle: methylcellulose (MC))?
A: 158 % of control

Q: And the T/C (dose: 16.0 mg/kg/injection, schedule: Q01DX Z (sc), vehicle: saline)?
A: 150 % of control

Q: And the T/C (dose: 20.0 mg/kg/injection, schedule: Q01DX Z (sc), vehicle: methylcellulose (MC))?
A: 164 % of control

Q: What about the T/C (dose: 32.0 mg/kg/injection, schedule: Q01DX Z (sc), vehicle: saline) of the same molecule?
A: 166 % of control

Q: And the T/C (dose: 40.0 mg/kg/injection, schedule: Q01DX Z (sc), vehicle: methylcellulose (MC))?
A: 176 % of control

Q: What about the T/C (dose: 64.0 mg/kg/injection, schedule: Q01DX Z (sc), vehicle: saline) of the same molecule?
A: 155 % of control

Q: What about the T/C (dose: 128.0 mg/kg/injection, schedule: Q01DX Z (sc), vehicle: saline) of the same molecule?
A: 155 % of control

Q: What about the T/C (dose: 256.0 mg/kg/injection, schedule: Q01DX Z (sc), vehicle: saline) of the same molecule?
A: 150 % of control

Q: What does the source list for `Nc1nncs1`?
A: T/C (dose: 50.0 mg/kg/injection, schedule: Q04DX004 (sc), vehicle: water): 111 % of control; T/C (dose: 100.0 mg/kg/injection, schedule: Q04DX004 (sc), vehicle: water): 101 % of control; T/C (dose: 200.0 mg/kg/injection, schedule: Q04DX004 (sc), vehicle: water): 106 % of control; T/C (dose: 200.0 mg/kg/injection, schedule: Q08DX003 (sc), vehicle: water): 101 % of control; T/C (dose: 400.0 mg/kg/injection, schedule: Q04DX004 (sc), vehicle: water): 111 % of control; T/C (dose: 400.0 mg/kg/injection, schedule: Q08DX003 (sc), vehicle: water): 108 % of control; T/C (dose: 800.0 mg/kg/injection, schedule: Q08DX003 (sc), vehicle: water): 109 % of control; T/C (dose: 1600.0 mg/kg/injection, schedule: Q08DX003 (sc), vehicle: water): 117 % of control

Q: Which results are given for `COC12C(COC(N)=O)C3=C(C(=O)C(C)=C(N)C3=O)N1CC1C2N1C` (centres undefined)?
A: T/C (dose: 1.8 mg/kg/injection, schedule: Q01DX Z (sc), vehicle: saline): 100 % of control; T/C (dose: 2.0 mg/kg/injection, schedule: Q01DX009 (ip), vehicle: saline): 101 % of control; T/C (dose: 2.0 mg/kg/injection, schedule: Q01DX009 (sc), vehicle: saline): 103 % of control and 106 % of control; T/C (dose: 3.0 mg/kg/injection, schedule: Q01DX Z (sc), vehicle: saline): 100 % of control; T/C (dose: 4.0 mg/kg/injection, schedule: Q01DX009 (ip), vehicle: saline): 106 % of control; T/C (dose: 4.0 mg/kg/injection, schedule: Q01DX009 (sc), vehicle: saline): 104 % of control and 105 % of control; T/C (dose: 5.0 mg/kg/injection, schedule: Q01DX Z (sc), vehicle: saline): 100 % of control; T/C (dose: 8.0 mg/kg/injection, schedule: Q01DX009 (ip), vehicle: saline): 116 % of control; T/C (dose: 8.0 mg/kg/injection, schedule: Q01DX009 (sc), vehicle: saline): 107 % of control and 112 % of control; T/C (dose: 8.4 mg/kg/injection, schedule: Q01DX Z (sc), vehicle: saline): 100 % of control; T/C (dose: 16.0 mg/kg/injection, schedule: Q01DX009 (sc), vehicle: saline): 116 % of control; T/C (dose: 32.0 mg/kg/injection, schedule: Q01DX009 (sc), vehicle: saline): 92 % of control and 117 % of control
